We go through seven compounds from patent US20090131430A1, “PYRIDO'2,3-DIPYRIMIDINES AS ANTI-INFLAMMATORY AGENTS” (priority 2004, published 2009).

Data set [1] concerns TNF-α release from peripheral blood mononuclear cells. Description: Cell based assay for TNF-α release, LPS stimulation of human PBMNC's (ELISA). To be noted: PBMC, LPS 20 ng/ml, overnight, span over the group, units given in the value. How it is done: Human whole blood was collected in vacutainer tubes containing EDTA as an anti coagulant. A blood sample (7 ml) was carefully layered over 5 ml PMN Cell Isolation Medium (Robbins Scientific) in a 15 ml round bottom centrifuge tubes. The sample was centrifuged at 450-500×g for 30-35 minutes in a swing-out rotor at room temperature. After centrifugation the top band of cells were removed and washed 3 times with PBS w/o calcium or magnesium. The cells were centrifuged at 400×g for 10 minutes at room temperature. The cells were resuspended in Macrophage Serum Free Medium (Gibco BRL) at concentration of 2 million cells/ml.
PBM cells (0.1 ml; 2 million/ml) were co-incubated with 0.1 ml of compound (10-0.41 μM, final concentration) for 1 hour in flat bottom 96 well microtiter plate. Compounds were dissolved in DMSO initially and diluted in TCM for a final concentration of 0.1% DMSO. LPS (Cal biochem, 20 ng/ml, final concentration) was then added at volume of 0.010 ml. Cultures were incubated overnight at 37° C.). Supernatant were then removed and tested by ELISA for TNF-α release. Viability was analyzed using MTT. After 0.1 ml supernatant was collected, 0.1 ml of 0.25 mg/ml of MTT was added to remaining 0.1 ml of cells. The cells were incubated at 37° C. for 2-4 hours, then the O.D was measured at 490-650 nm n.
The TNF-α levels released in the culture medium were quantitated by ELISA. Inhibitory potency was expressed as IC50.
Background: An ELISA detects its analyte on a solid surface through an enzyme-linked reagent.

Data set [2] can be described thus: Precipitate formation in the DMSO solvent used. The class given is physicochemical. The following applies: DMSO solvent used in testing.

On to `Cn1c(=O)c(-c2ccccc2Cl)cc2cnc(NC3CC4CCC(C3)N4Cc3ccccc3)nc21` (centres unmarked), for which the melting point (commonly the temperature, or range, at which the solid turns liquid) was 147.4 to 153.8 °C.

As for `Cn1c(=O)c(-c2ccccc2Cl)cc2cnc(NC3CC4CCCC(C3)N4Cc3ccccc3)nc21` (centres unmarked), the melting point is 76.9 to 82 °C.

The compound `CCOC(=O)N1CC2C(C1)C2Nc1ncc2cc(-c3ccccc3Cl)c(=O)n(C)c2n1` (centres unmarked) [Compound No. 68, 6-[6-(2-Chlorophenyl)-8-methyl-7-oxo-7,8-dihydro-pyrido[2,-d]pyrimidin-2-ylamino]-3-aza-bicyclo[3.1.0]hexane-3-carboxylic acid ethyl ester] displayed a melting point of 118.7 to 125.2 °C.

Consider `CC(C)(C)CC(C)(C)NC(=O)N1CC2C(C1)C2Nc1ncc2cc(-c3ccccc3Cl)c(=O)n(C3CC3)c2n1` (centres unmarked) [Compound No. 24], for which the IC50 (in general, the midpoint of a concentration-inhibition curve) in data set [1] lay within 0.012 to 2.3 µM. In data set [2], the “formed a precipitate in the DMSO solvent used” value (shortened to “formed a precipitate”) is given as “formed a precipitate in the DMSO solvent used”.

For the compound `O=c1c(-c2ccccc2Cl)cc2cnc(NC3C4COCC3CN(Cc3ccccc3)C4)nc2n1-c1ccc(F)cc1` (centres unmarked) [Compound No. 52, 2-(7-Benzyl-3-oxa-7-aza-bicyclo[3.3.1]non-9-ylamino)-6-(2-chlorophenyl)-8-(4-fluorophenyl)-8H-pyrido[2,3-d]pyrimidin-7-one], the melting point was 107.4 to 110.4 °C.

Regarding `O=c1[nH]c2nc(NC3C4COCC3CN(Cc3ccccc3)C4)ncc2cc1-c1ccccc1Cl` (centres unmarked) [Compound No. 61, 2-(7-Benzyl-3-oxa-7-aza-bicyclo[3.3.1]non-9-ylamino)-6-(2-chlorophenyl)-8H-pyrido[2,3-d]pyrimidin-7-one], the “formed a precipitate” value in data set [2] is listed as “formed a precipitate in the DMSO solvent used”.

Take `Cn1c(=O)c(-c2ccccc2Cl)cc2cnc(NC3C4CN(S(=O)(=O)c5ccccc5)CC43)nc21` (centres unmarked) [Compound No. 41, 2-(3-Benzenesulphonyl-3-aza-bicyclo[3.1.0]hex-6-ylamino)-6-(2-chlorophenyl)-8-methyl-8H-pyrido[2,3-d]pyrimidin-7-one]: the “formed a precipitate” value in data set [2] is “formed a precipitate in the DMSO solvent used”.
